How the values were obtained:
Assay in all cases: Cell proliferation inhibition experiment, CellTiter-Glo (CTG) method
Format in all cases: cell-based
A-431 = conditions: Homo sapiens, A-431, 72 h, A-431 cells, 3 days
Procedure, shortened: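 Cells seeded overnight at 37 °C, 5% CO2, then treated with nine 3-fold dilutions in triplicate, top 30 μM for A-431 and 1.111 μM for NCI-H1975 and PC-9; solvent control. After 3 days, viability read by CellTiter-Glo luminescence; IC50 from non-linear sigmoidal fit of survival rate.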

PC-9 = conditions: Homo sapiens, PC-9, 72 h, PC-9 cells, 3 days
Procedure, shortened: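 Cells in log-phase growth (viability above 90% by trypan blue) were seeded at 90 μL per well in black-walled, clear-bottom 96-well plates and incubated overnight at 37° C., 5% CO2. A T0 plate was read the next day. Test compounds were added at nine concentrations in triplicate with a solvent control. Viability was measured by CellTiter-Glo luminescence on EnVision, and IC50 came from non-linear S-curve fitting in GraphPad Prism 5.0.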

NCI-H1975 = conditions: for IC50: Homo sapiens, NCI-H1975, 72 h, NCI-H1975 cells, CTG, 3 days; for A-431/NCI-H1975 Selectivity: ratio of A-431 IC50 to NCI-H1975 IC50
Procedure, shortened: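 NCI-H1975 cells with viability above 90% by trypan blue were seeded at 90 μL per well in black 96-well plates and incubated overnight at 37° C., 5% CO2. Compounds were added at nine concentrations in triplicate, and viability was measured with CellTiter-Glo luminescence on EnVision. IC50 came from non-linear S-curve fitting in GraphPad Prism 5.0.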

| SMILES | IC50 (A-431) | IC50 (PC-9) | IC50 (NCI-H1975) | A-431/NCI-H1975 Selectivity (NCI-H1975) |
| --- | --- | --- | --- | --- |
| C=CC(=O)Nc1cc(Nc2nccc(-c3ccc4c(cnn4C)c3)n2)c(OC)cc1N1CCC(N2CCN(C(C)C)CC2)CC1 [compound 234] | 2460 nM | 32.7 nM | 80.1 nM | 30.7 |
| C=CC(=O)Nc1cc(Nc2nccc(-c3ccc4c(cnn4C)c3)n2)c(OC)cc1N1CCN(C2CCOCC2)CC1 [compound 235] | 2400 nM | 24.9 nM | 94 nM | 25.5 |
| C=CC(=O)Nc1cc(Nc2nccc(-c3ccc4c(cnn4C)c3)n2)c(OC)cc1N1CCC(N2C[C@@H](C)O[C@@H](C)C2)CC1 [compound 236] | 2080 nM | 38.7 nM | 60 nM | 34.7 |
| C=CC(=O)Nc1cc(Nc2nccc(-c3ccc4c(cnn4C)c3)n2)c(OC)cc1OCCN(C)C [compound 237] | 1820 nM | 44.5 nM | 21.7 nM | 84.1 |
| C=CC(=O)Nc1cc(Nc2nccc(-c3ccc4c(cnn4C(C)C)c3)n2)c(OC)cc1N(C)CCN(C)C [compound 238] | 1940 nM | 99.4 nM | 51.6 nM | 37.6 |
| C=CC(=O)Nc1cc(Nc2nccc(-c3ccc4c(cnn4CC)c3)n2)c(OC)cc1N(C)CCN(CC)CC [compound 240] | 2980 nM | 110 nM | 62 nM | 48.0 |
| C=CC(=O)Nc1cc(Nc2nccc(-c3ccc4c(cnn4C)c3)n2)c(OCC)cc1N(C)CCN(C)C [compound 242] | 1200 nM | 28.1 nM | 26.7 nM | 45.0 |
| C=CC(=O)Nc1cc(Nc2nccc(-c3ccc4c(cnn4CC)c3)n2)c(OCC)cc1N(C)CCN(C)C [compound 243] | 2180 nM | 65.4 nM | 42.9 nM | 50.8 |
| C=CC(=O)Nc1cc(Nc2nccc(-c3ccc4c(cnn4C)c3)n2)c(OC)cc1N(C)CCN1CCN(C)CC1 [compound 244] | 2400 nM | 84.7 nM | 59.7 nM | 40.2 |
| C=CC(=O)Nc1cc(Nc2nccc(-c3ccc4c(cnn4C)c3)n2)c(OC(F)F)cc1N(C)CCN1CCN(C)CC1 [compound 245] | 2380 nM | 70.7 nM | 61.6 nM | 38.6 |
| C=CC(=O)Nc1cc(Nc2nccc(-c3ccc4c(cnn4C)c3)n2)c(OC)cc1N(C)CCNC(C)(C)C [compound 246] | 2300 nM | 67.2 nM | 89.7 nM | 25.6 |
| C=CC(=O)Nc1cc(Nc2nccc(-c3ccc4c(cnn4C)c3)n2)c(OC)cc1N1CCC(N2CCN(C(C)=O)CC2)CC1 [compound 253] | 2490 nM | 32.1 nM | 62.2 nM | 40.0 |
| C=CC(=O)Nc1cc(Nc2nccc(-c3ccc4c(cnn4C)c3)n2)c(OC)cc1N(C)CCN1CCN(C(C)=O)CC1 [compound 254] | 2270 nM | 30.9 nM | 132 nM | 17.2 |
| C=CC(=O)Nc1cc(Nc2nccc(-c3ccc4nc(C)sc4c3)n2)c(OC)cc1N(C)CCN(C)C [compound 255] | 2010 nM | 30 nM | 46.4 nM | 43.4 |
| C=CC(=O)Nc1c(N(C)CCN(C)C)cc(OC)c(Nc2nccc(-c3ccc4c(cnn4C)c3)n2)c1F [compound 261] | 2100 nM | 40.8 nM | 37 nM | 56.8 |
| C=CC(=O)Nc1cc(Nc2nccc(-c3ccc4c(cnn4C)c3)n2)c(OC)cc1N1CCC(N(CC)CC)CC1 [compound 262] | 2980 nM | 52.7 nM | 124 nM | 24.1 |
| C=CC(=O)Nc1cc(Nc2cc(-c3ccc4c(cnn4C)c3)ncn2)c(OCC)cc1N1C[C@@H](C)N[C@@H](C)C1 [compound 265] | 1620 nM | 34.7 nM | 20.6 nM | 78.9 |
| C=CC(=O)Nc1cc(Nc2cc(-c3ccc4c(cnn4C)c3)ncn2)c(OC(F)F)cc1N1C[C@@H](C)N[C@@H](C)C1 [compound 266] | 938 nM | 24.8 nM | 10.1 nM | 92.9 |
| C=CC(=O)Nc1cc(Nc2cc(-c3ccc4c(cnn4C)c3)ncn2)c(OC)cc1N1CCN(C(C)(C)CO)CC1 [compound 268] | 1700 nM | 15.6 nM | 27.1 nM | 62.7 |
| C=CC(=O)Nc1cc(Nc2cc(-c3ccc4c(cnn4C)c3)ncn2)c(OC)cc1N(C)CCO [compound 269] | 1570 nM | 16.3 nM | 21.6 nM | 72.9 |
| C=CC(=O)Nc1cc(Nc2cc(-c3ccc4c(cnn4C)c3)ncn2)c(OC)cc1N1CCC(CCO)CC1 [compound 270] | 2400 nM | 54.6 nM | 44.4 nM | 54.1 |
| C=CC(=O)Nc1cc(Nc2cc(-c3ccc4c(cnn4C)c3)ncn2)c(OC(F)F)cc1N(C)CCNC(C)C [compound 272] | 987 nM | 13.9 nM | 5.6 nM | 176.3 |
| C=CC(=O)Nc1cc(Nc2cc(-c3ccc4cnn(C)c4c3)ncn2)c(OC)cc1N1CCN(CCO)CC1 [compound 274] | 2040 nM | 56.7 nM | 47 nM | 43.4 |
| C=CC(=O)Nc1cc(Nc2cc(-c3ccc4cnn(C)c4c3)ncn2)c(OC(F)F)cc1N1CCN(CCO)CC1 [compound 275] | 3300 nM | 43.2 nM | 136 nM | 24.3 |

More lines, main results first:

| IC50 (A-431) | IC50 (PC-9) | IC50 (NCI-H1975) | SMILES | A-431/NCI-H1975 Selectivity (NCI-H1975) |
| --- | --- | --- | --- | --- |
| 1580 nM | 67.9 nM | 33 nM | C=CC(=O)Nc1cc(Nc2nccc(-c3ccc4c(cnn4C)c3)n2)c(OC)cc1N(C)CCN(CC)CC [compound 239] | 47.8 |
| 1040 nM | 211 nM | 22.9 nM | C=CC(=O)Nc1cc(Nc2nccc(-c3ccc4c(cnn4C)c3)n2)c(OC)cc1N(C)CCN(C)CC [compound 241] | 45.3 |
| 2990 nM | 37.4 nM | 37.1 nM | C=CC(=O)Nc1cc(Nc2nccc(-c3ccc4c(cnn4C)c3)n2)c(OC(F)F)cc1N(C)CCNC(C)(C)C [compound 247] | 80.5 |
| 2850 nM | 27.7 nM | 13.3 nM | C=CC(=O)Nc1cc(Nc2nccc(-c3ccc4c(cnn4C)c3)n2)c(OC)cc1NCCN(C)C [compound 248] | 214.3 |
| 943 nM | 61 nM | 8.6 nM | C=CC(=O)Nc1cc(Nc2nccc(-c3ccc4c(cnn4C)c3)n2)c(OC(F)F)cc1NCCN(C)C [compound 249] | 109.7 |
| 2990 nM | 25.5 nM | 188 nM | C=CC(=O)Nc1cc(Nc2nccc(-c3ccc4c(cnn4C)c3)n2)c(OC)cc1N(C)CCN1CCN(C2CC2)CC1 [compound 252] | 16.0 |
| 992 nM | 19.2 nM | 9.6 nM | C=CC(=O)Nc1cc(Nc2cc(-c3ccc4c(cnn4C)c3)ncn2)c(OC(F)F)cc1N(C)CCN(C)C(C)C [compound 256] | 103.3 |
| 2070 nM | 42.7 nM | 58.6 nM | C=CC(=O)Nc1cc(Nc2nccc(-c3ccc4c(cnn4C)c3)n2)c(OC)cc1N(C)CCN(C)C(C)C [compound 257] | 35.3 |
| 2950 nM | 32.4 nM | 51.6 nM | C=CC(=O)Nc1cc(Nc2nccc(-c3ccc4c(cnn4C)c3)n2)c(OCC)cc1N(C)CCN(C)CC [compound 258] | 57.1 |
| 1530 nM | 19.9 nM | 14.9 nM | C=CC(=O)Nc1cc(Nc2nccc(-c3ccc4c(cnn4C)c3)n2)c(OC(F)F)cc1N(C)CCN(C)CC [compound 259] | 102.6 |
| 1320 nM | 20.1 nM | 12.8 nM | C=CC(=O)Nc1cc(Nc2nccc(-c3ccc4c(cnn4C)c3)n2)c(OC(F)F)cc1N(C)CCN(C)C [compound 260] | 103.5 |
| 1200 nM | 18.5 nM | 9.1 nM | C=CC(=O)Nc1cc(Nc2cc(-c3ccc4c(cnn4C)c3)ncn2)c(OC)cc1N(C)CCNC(C)C [compound 263] | 131.9 |
| 924 nM | 22.1 nM | 5.5 nM | C=CC(=O)Nc1cc(Nc2cc(-c3ccc4c(cnn4C)c3)ncn2)c(OC)cc1N1C[C@@H](C)N[C@@H](C)C1 [compound 264] | – |
| 2390 nM | 77.7 nM | 25.2 nM | C=CC(=O)Nc1cc(Nc2cc(-c3ccc4c(cnn4C)c3)ncn2)c(OCC)cc1N(C)CCNC(C)C [compound 271] | 94.9 |
| 2680 nM | 79.8 nM | 53.3 nM | C=CC(=O)Nc1cc(Nc2cc(-c3ccc4c(cnn4C)c3)ncn2)c(OC(F)F)cc1N1CCN(CCO)CC1 [compound 273] | 50.2 |

Source: patent US11352352B2, “Aminopyrimidine compound, preparation method therefor and use thereof” (BEIJING ADAMADLE BIOTECHNOLOGY LIMITED LIABILITY COMPANY, priority 2017, dated 2022)
